{"source": "paper PMC11042424", "about": "“Development of a First-in-Class RIPK1 Degrader to Enhance Antitumor Immunity” (Research Square, 2024)", "target": "T1, RIPK1 (Mus musculus, UniProt Q60855)", "T1 sequence (Q60855 1-656)": "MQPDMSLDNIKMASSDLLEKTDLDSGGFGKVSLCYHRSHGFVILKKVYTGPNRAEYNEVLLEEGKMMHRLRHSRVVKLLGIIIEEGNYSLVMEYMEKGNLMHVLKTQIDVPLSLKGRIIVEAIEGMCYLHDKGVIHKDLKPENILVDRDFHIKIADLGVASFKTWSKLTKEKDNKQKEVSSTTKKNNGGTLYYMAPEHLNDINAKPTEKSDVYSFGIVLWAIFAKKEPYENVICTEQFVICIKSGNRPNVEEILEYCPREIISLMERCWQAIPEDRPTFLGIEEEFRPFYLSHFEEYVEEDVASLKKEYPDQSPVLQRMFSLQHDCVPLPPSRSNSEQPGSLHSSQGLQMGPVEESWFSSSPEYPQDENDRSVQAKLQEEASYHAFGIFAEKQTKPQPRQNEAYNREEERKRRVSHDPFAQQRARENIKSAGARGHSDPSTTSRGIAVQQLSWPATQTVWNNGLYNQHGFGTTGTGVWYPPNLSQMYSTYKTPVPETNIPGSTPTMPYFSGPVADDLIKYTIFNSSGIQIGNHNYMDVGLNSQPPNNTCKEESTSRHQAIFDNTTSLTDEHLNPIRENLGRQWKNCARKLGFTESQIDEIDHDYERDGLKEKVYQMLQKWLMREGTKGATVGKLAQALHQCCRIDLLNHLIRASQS", "assay": "In vivo pharmacodynamics: RIPK1 levels in tissues", "set-up": "observed a 60% reduction in RIPK1 levels in tumors; from tissue; host or cells: tumors, spleen, lymph nodes, PBMCs, lungs, bone marrow of C57BL/6J mice; species or system C57BL/6J mice", "protocol": "Figure 4 LD4172 synergizes with Anti-PD1 to inhibit tumor growth. A, Plasma concentrations of LD4172 in C57BL/6J mice administered 1 mg/kg intravenously (i.v.) or 10 mg/kg intraperitoneally (i.p.) (n=4). B, Representative immunoblots of RIPK1 in different tissues of C57BL/6J mice treated with LD4172 (n=3–4). C, Densitometric analysis of RIPK1 protein levels in different tissues (n=3 or 4). D, Representative immunoblots of RIPK1 levels of B16F10 cells transduced with gRNA specific for RIPK1 or non-targetable control (sgNC). E, B16F10-RIPK1-KO tumors sensitized to anti-PD1 treatment: 3×10^5 B16F10 cells transduced with gRNA specific for RIPK1 or non-targetable control (sgNC) were inoculated into C57BL/6J mice. After seven days, mice with measurable tumors (~100 mm3) were randomly treated with or without anti-PD1 in vivo (100 μg per dose, i.p., every three days, n=8). F, Tumor growth curve of mice with B16F10 tumors treated with LD4172 and/or anti-PD1 (n=8). C57B6/J mice were subcutaneously inoculated with 3×10^5 B16F10 tumor cells. After seven days (tumor size ~ 100 mm3), mice were treated every three days with anti- PD1 (100 μg per dose, i.p.), daily with LD4172 (20 mg/kg, i.p.), a combination of LD4172 and anti-PD1 (same dose as their individual doses), or their corresponding vehicle control. G, Kaplan-Meier survival curve for all experimental groups. H, Final tumor weight (g) from F after 22d of treatment (n=8). I, Representative images of B16F10 tumors collected at the end of treatment. J, Mouse body weight (n=8). K, Tumor growth curve of mice with B16F10 tumors treated with T2I and/or anti-PD1 (n=8). The experimental conditions and treatment regimens were the same as F except using the RIPK1 kinase inhibitor T2I (20 mg/kg, i.p.) to replace LD4172. Representative data from at least three independent experiments are shown. Data are expressed as the mean ± SEM. * p<0.05; ** p<0.01; *** p<0.001, **** p<0.0001, respectively. ns, indicates no statistical significance.\nTo investigate the pharmacodynamics of LD4172 in vivo, we administered LD4172 via the i.p. route and observed a 60% reduction in RIPK1 levels in tumors (20 mg/kg, b.i.d., i.p.) (Fig. 4B–C).", "data": [{"smiles": "Cc1ncsc1-c1ccc([C@H](C)NC(=O)[C@@H]2C[C@@H](O)CN2C(=O)[C@@H](NC(=O)CCCCCCCCCCC(=O)NCCCn2cc(-c3ccc4c(c3)CCN4C(=O)Cc3cccc(OC(F)(F)F)c3)c3c(N)ncnc32)C(C)(C)C)cc1", "note": "[LD4172]", "values": [{"measurement": "reduction in RIPK1 levels in tumors", "setting": "20 mg/kg, b.i.d., i.p.", "result": 60, "unit": "%"}, {"measurement": "RIPK1 degradation in lymph nodes, PBMCs, lungs, and bone marrow", "setting": "i.p.", "result": "no significant RIPK1 degradation"}, {"measurement": "RIPK1 degradation in the spleen", "setting": "i.p.", "result": "less than 50%"}, {"measurement": "RIPK1 degradation in tumors, intratumoral administration", "setting": "intratumoral vs i.p.", "result": "improved RIPK1 degradation in the tumors"}]}]}
